No end group written: not given here. βAla = NCCC(=O)O
Legend:
K243D mutant of DegS [1] = biological target: T1, K243D mutant of DegS (Escherichia coli, UniProt P0AEE3, K243D); format: biochemical, E. coli
wild-type DegS [2] = biological target: T2, wild-type DegS (Escherichia coli, UniProt P0AEE3); details: 200 μM RseA, ref Sohn et al. (2007); cited from earlier work
D320A DegS [3] = biological target: T3, D320A DegS (Escherichia coli, UniProt P0AEE3, D320A); format: biochemical, E. coli
[4] = biological target: K243D/M319A double mutant of DegS (Escherichia coli, UniProt P0AEE3, K243D/M319A); format: biochemical, E. coli; details: saturating peptide
[5] = biological target: K243D/D320A mutant of DegS (Escherichia coli, UniProt P0AEE3, D320A/K243D); format: biochemical, E. coli
wild-type DegS [6] = biological target: T2, wild-type DegS; format: biochemical, E. coli; details: wild-type DegS 0.9 μM trimer; 20 μM rhodamine-FP; saturating peptide
wild-type DegS [7] = biological target: T2, wild-type DegS; format: biochemical, E. coli
D320A DegS [8] = biological target: T3, D320A DegS; assay: OMP-peptide activation of RseA cleavage by D320A DegS; format: biochemical, E. coli
D320A DegS [9] = biological target: T3, D320A DegS; assay: Global fit to MWC allosteric model, D320A DegS; format: biochemical, E. coli; details: D320A, MWC global fit
wild-type DegS [10] = biological target: T2, wild-type DegS; details: saturating peptide, ref Sohn et al. (2007); cited from earlier work
K243D mutant of DegS [11] = biological target: T1, K243D mutant of DegS; assay: Global fit to MWC allosteric model, K243D DegS; format: biochemical, E. coli; details: K243D, MWC global fit
[12] = biological target: T4, DegS K243D/M319A double mutant (residues 27–355, N-terminal His6 tag) (E. coli, UniProt P0AEE3 27-355, K243D | M319A); assay: fluorescence polarisation
T4 sequence (looked up): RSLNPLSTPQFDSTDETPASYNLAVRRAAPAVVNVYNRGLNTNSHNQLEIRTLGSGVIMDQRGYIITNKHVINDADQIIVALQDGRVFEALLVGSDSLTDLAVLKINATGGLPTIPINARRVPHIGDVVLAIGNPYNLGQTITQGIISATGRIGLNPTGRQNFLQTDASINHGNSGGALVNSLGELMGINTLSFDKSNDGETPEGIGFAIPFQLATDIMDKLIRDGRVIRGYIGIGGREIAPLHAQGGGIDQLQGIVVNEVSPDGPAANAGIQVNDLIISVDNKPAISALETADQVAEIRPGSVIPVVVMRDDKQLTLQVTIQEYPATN

[13] = biological target: T5, DegS M319A (residues 27–355, N-terminal His6 tag) (E. coli, UniProt P0AEE3 27-355, M319A); assay: fluorescence polarisation
T5 sequence (looked up): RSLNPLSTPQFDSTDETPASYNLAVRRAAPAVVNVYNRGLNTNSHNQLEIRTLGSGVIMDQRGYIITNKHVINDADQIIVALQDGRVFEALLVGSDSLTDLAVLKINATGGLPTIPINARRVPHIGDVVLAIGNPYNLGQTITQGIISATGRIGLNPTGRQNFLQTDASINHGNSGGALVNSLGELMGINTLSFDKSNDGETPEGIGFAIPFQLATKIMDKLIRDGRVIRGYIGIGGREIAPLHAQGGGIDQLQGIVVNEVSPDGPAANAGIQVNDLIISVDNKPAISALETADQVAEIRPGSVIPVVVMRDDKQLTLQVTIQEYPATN

DegS and its mutants = assay: Global fit to MWC allosteric model, RseA substrate binding; format: biochemical, E. coli
[14] = enzyme parameter, peptide-independent
[15] = peptide preference for relaxed state
[16] = same value for all enzymes and peptides

T3 sequence (P0AEE3 27-355 D320A): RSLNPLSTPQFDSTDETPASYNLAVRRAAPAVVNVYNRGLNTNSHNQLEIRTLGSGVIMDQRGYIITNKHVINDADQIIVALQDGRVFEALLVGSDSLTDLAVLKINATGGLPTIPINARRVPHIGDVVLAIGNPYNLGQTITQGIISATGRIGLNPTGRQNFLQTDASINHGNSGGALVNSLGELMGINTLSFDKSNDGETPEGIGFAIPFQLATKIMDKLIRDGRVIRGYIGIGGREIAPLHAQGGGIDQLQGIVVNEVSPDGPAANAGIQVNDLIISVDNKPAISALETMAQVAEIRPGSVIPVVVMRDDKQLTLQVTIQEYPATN
T1 sequence (P0AEE3 27-355 K243D): as the sequence (P0AEE3 27-355 D320A) above, with K217D, A294D counted along it
T2 sequence (P0AEE3 27-355): as the sequence (P0AEE3 27-355 D320A) above, with A294D counted along it
Sequence of K243D/D320A mutant of DegS (P0AEE3 27-355 K243D/D320A): as the sequence (P0AEE3 27-355 D320A) above, with K217D counted along it

## DNRDGNVYYF [DNRDGNVYYF]
K243D mutant of DegS [1]; K243D 0.3 μM trimer, saturating peptide (DNRDGNVYYF 30 μM), 23 °C, pH 8.3
  Vmax (RseA cleavage): 1.8 ± 0.2 s^−1enz^−1
K243D mutant of DegS [1]; K243D, saturating peptide
  Hill Constant (RseA substrate): 1.3 ± 0.1
wild-type DegS [2]
  Hill Constant (peptide activation): 1.8 ± 0.2
D320A DegS [3]; D320A 0.3 μM trimer, saturating peptide (DNRDGNVYYF 30 μM), 23 °C, pH 8.3
  Vmax (RseA cleavage): 2.5 ± 0.3 s^−1enz^−1
D320A DegS [3]; D320A, saturating peptide
  Hill Constant (RseA substrate): 1.1 ± 0.2
[4]
  Hill Constant (RseA substrate): 1.2 ± 0.1
[4]; 23 °C, pH 8.3
  Vmax (RseA cleavage): 1.4 ± 0.1 s^−1enz^−1
[5]; K243D/D320A 0.3 μM trimer, DNRDGNVYYF 30 μM, 23 °C, pH 8.3
  Vmax (RseA cleavage): 2.0 ± 0.3 s^−1enz^−1
[5]; K243D/D320A, saturating OMP peptide
  Hill Constant (RseA substrate): 1.1 ± 0.1
wild-type DegS [6]
  rate of rhodamine-FP modification in presence of peptide (order): slower
wild-type DegS [7]; MWC global fit, enzyme parameter, peptide-independent
  L0, equilibrium constant T/R of unliganded enzyme: 15000
wild-type DegS [7]; MWC global fit, peptide preference for relaxed state
  KTP/KRP: 6.8
wild-type DegS [7]; MWC global fit, same value for all enzymes and peptides
  kr, rate constant for cleavage of RseA by substrate-bound R-state subunits: 3.3 s⁻¹
wild-type DegS [7]; saturating peptide and saturating RseA substrate, MWC model
  DegS molecules in active conformation: 45%
D320A DegS [8]
  EC50: 200 ± 100 nM
D320A DegS [9]; RseA, not peptide, binding
  KRS, dissociation constant of RseA substrate for R-state subunit: 150 µM
  KTS, dissociation constant of RseA substrate for T-state subunit: 505 µM
D320A DegS [9]; [14]
  L0, equilibrium constant T/R of unliganded enzyme: 350
D320A DegS [9]; [15]
  KTP/KRP: 3.3
D320A DegS [9]; [16]
  kr, rate constant for cleavage of RseA by substrate-bound R-state subunits: 3.3 s⁻¹
wild-type DegS [10]
  Hill Constant (RseA substrate): 1.6 ± 0.2
  Vmax (RseA cleavage): 1.1 ± 0.2 s^−1enz^−1
K243D mutant of DegS [11]; RseA, not peptide, binding
  KRS, dissociation constant of RseA substrate for R-state subunit: 150 µM
  KTS, dissociation constant of RseA substrate for T-state subunit: 505 µM
K243D mutant of DegS [11]; [14]
  L0, equilibrium constant T/R of unliganded enzyme: 180
K243D mutant of DegS [11]; [15]
  KTP/KRP: 2.0
K243D mutant of DegS [11]; [16]
  kr, rate constant for cleavage of RseA by substrate-bound R-state subunits: 3.3 s⁻¹

## {fluoresceine-βAla}-KKDNRDGNYYF [OMP peptide fluoresceine-β-alanine-KKDNRDGNYYF]
[12]
  Kd: 180 nM
[13]
  Kd: 140 nM

B1: RseA: 35S-labeled variant of the periplasmic domain of E. coli RseA (residues 121–216) with a C-terminal His6 tag (protein)
chain: YNGQSETSQQPETPVFNTLPMMGKASPVSLGVPSEATANNGQQQQVQEQRRRINAMLQDYELQRRLHSEQLQFEQAQTQQAAVQVPGIQTLGTQSQ
modifications: 35S-labeled; left off: His6, C-terminal, state not stated
DegS and its mutants
  preference for relaxed state in substrate-saturated trimer: approximately 40 fold
